Reference: patent US20070144540A1, “Drug delivery through application in nails” (TLT Medical Ltd., priority 2004, published 2007)

Assay: in-vitro nail permeation assay in Franz-type diffusion cells
Assay type: in vitro ADME, human
Details: formulations with 5% and 10% (w/w) terbinafine in the vehicle of Table 3; nails with 400 orifices/cm^2, depth 0.5 mm (50% to 70% of nail plate thickness); single dose of 100 μL; 30° C.; up to 72 hours
Description: Franz-cells comprise two chambers separated by the nail plate. The radiolabelled [^14C]-terbinafine containing transungual formulations were applied in the donor upper chamber and the receptor chamber is filled with a buffer to simulate the human physiological conditions. To account for the fact the nails are hard and curved, wetted nails are clamped between two flexible flat silicone polymer disks. The temperature of the cells was kept a 30° C. using a circulating water bath. Magnetic stirrer bars were used to ensure receptor uniformity throughout an experiment.
The nail permeation assays consisted of exposing the dorsal side of the nail plates to the investigated formulations while monitoring the appearance the amount of radiolabelled [^14C]-terbinafine on the ventral side by […] in the receptor fluid chamber of the Franz cells. In all cases a single dose of 100 μL was applied in the nail dorsal side. 100 μL of buffer were taken for each time point for LSC measurement which was replaced by buffer in order to keep the total buffer volume constant. The sampling time points were 0, 1, 3, 5, 7, 24, 32, 48, 52, 55 and 72 hours.
Human cadaveric thumb toenails used in the permeation assays were harvested from diseased adults (age >50 years old) in order to match thickness and consistence of the nails of the patient age group having a higher incidence to onychomycosis. […]

## CN(C/C=C/C#CC(C)(C)C)Cc1cccc2ccccc12 [terbinafine]
  terbinafine permeation fluxes in laser pre-treated nails versus untreated nails: three to four times higher
